Results: publication PMC6979384, “Characterization of the plant homeodomain (PHD) reader family for their histone tail interactions” (Epigenetics & Chromatin, 2020)

Legend:
Assay in all cases: Histone peptide microarray
Assay type in all cases: binding, human
KDM5B (1) = details: GST-tagged KDM5B (1); sheet Array Heatmap; each array performed twice, total n = 4
How it was run: (§1)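 Steps: express and purify GST-tagged PHD reader; incubate 0.5 μM protein on a peptide microarray (293 histone peptides, single or combined PTMs) following an optimized protocol; average signal across 4 replicates.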

MLL5 = details: GST-tagged MLL5; sheet Array Heatmap; each array performed twice, total n = 4
How it was run: as §1

ING3 = details: GST-tagged ING3; sheet Array Heatmap; each array performed twice, total n = 4
How it was run: as §1

PHF23 = details: GST-tagged PHF23; sheet Array Heatmap; each array performed twice, total n = 4
How it was run: as §1

ING1 = details: GST-tagged ING1; sheet Array Heatmap; each array performed twice, total n = 4
How it was run: as §1

DIDO1 = details: GST-tagged DIDO1; sheet Array Heatmap; each array performed twice, total n = 4
How it was run: as §1

CHD5 (PCC) = details: GST-tagged CHD5 (PCC = PHD + Dual Chromodomain); sheet Array Heatmap; each array performed twice, total n = 4
How it was run: as §1

KDM5A (3) = details: GST-tagged KDM5A (3); sheet Array Heatmap; each array performed twice, total n = 4
How it was run: as §1

PHF13 = details: GST-tagged PHF13; sheet Array Heatmap; each array performed twice, total n = 4
How it was run: as §1

KDM7A = details: GST-tagged KDM7A; sheet Array Heatmap; each array performed twice, total n = 4
How it was run: as §1

ING5 = details: GST-tagged ING5; sheet Array Heatmap; each array performed twice, total n = 4
How it was run: as §1

MORC3 (CW) = details: GST-tagged MORC3 (CW = CW-type Zn-finger); sheet Array Heatmap; each array performed twice, total n = 4
How it was run: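 GST-tagged PHD readers, 0.5 μM, probed on a microarray of 293 synthetic histone peptides carrying single or combinatorial PTMs (optimized Petell protocol). Signals are averaged over 4 replicates and expressed as relative binding.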

CHD4 (PPCC) = details: GST-tagged CHD4 (PPCC = Dual PHD + Dual Chromodomain); sheet Array Heatmap; each array performed twice, total n = 4
How it was run: as §1

KDM4C (TTP) = details: GST-tagged KDM4C (TTP = Tandem Tudor domain + PHD); sheet Array Heatmap; each array performed twice, total n = 4
How it was run: as §1

PHRF1 (RP) = details: GST-tagged PHRF1 (RP); sheet Array Heatmap; each array performed twice, total n = 4
How it was run: as §1

ING4 = details: GST-tagged ING4; sheet Array Heatmap; each array performed twice, total n = 4
How it was run: as §1

PHF21A = details: GST-tagged PHF21A; sheet Array Heatmap; each array performed twice, total n = 4
How it was run: as §1

PHF2 = details: GST-tagged PHF2; sheet Array Heatmap; each array performed twice, total n = 4
How it was run: as §1

BAZ2B = details: GST-tagged BAZ2B; sheet Array Heatmap; each array performed twice, total n = 4
How it was run: as §1

KDM5B (3) = details: GST-tagged KDM5B (3); sheet Array Heatmap; each array performed twice, total n = 4
How it was run: as §1

PHF8 = details: GST-tagged PHF8; sheet Array Heatmap; each array performed twice, total n = 4
How it was run: as §1

CHD5 (PPCC) = details: GST-tagged CHD5 (PPCC = Dual PHD + Dual Chromodomain); sheet Array Heatmap; each array performed twice, total n = 4
How it was run: as §1

TRIM66 (PB) = details: GST-tagged TRIM66 (PB = PHD + Bromodomain); sheet Array Heatmap; each array performed twice, total n = 4
How it was run: as §1

KDM5A (1) = details: GST-tagged KDM5A (1); sheet Array Heatmap; each array performed twice, total n = 4
How it was run: as §1

ING2 = details: GST-tagged ING2; sheet Array Heatmap; each array performed twice, total n = 4
How it was run: as §1

BPTF (PB) = details: GST-tagged BPTF (PB = PHD + Bromodomain); sheet Array Heatmap; each array performed twice, total n = 4
How it was run: as §1

RAG2 = details: GST-tagged RAG2; sheet Array Heatmap; each array performed twice, total n = 4
How it was run: as §1

DPF2 (PPC2W2) = details: GST-tagged DPF2 (PPC2W2 = Dual PHD + C2W2-type Zn-finger); sheet Array Heatmap; each array performed twice, total n = 4
How it was run: as §1

AIRE (PP) = details: GST-tagged AIRE (PP); sheet Array Heatmap; each array performed twice, total n = 4
How it was run: as §1

TAF3 = details: GST-tagged TAF3; sheet Array Heatmap; each array performed twice, total n = 4
How it was run: as §1

SP140L = details: GST-tagged SP140L; sheet Array Heatmap; each array performed twice, total n = 4
How it was run: as §1

Row | Substance | Array Heatmap signal (histone peptide microarray) (KDM5B (1)) | Array Heatmap signal (histone peptide microarray) (MLL5) | Array Heatmap signal (histone peptide microarray) (ING3) | Array Heatmap signal (histone peptide microarray) (PHF23) | Array Heatmap signal (histone peptide microarray) (ING1) | Array Heatmap signal (histone peptide microarray) (DIDO1) | Array Heatmap signal (histone peptide microarray) (CHD5 (PCC)) | Array Heatmap signal (histone peptide microarray) (KDM5A (3)) | Array Heatmap signal (histone peptide microarray) (PHF13) | Array Heatmap signal (histone peptide microarray) (KDM7A) | Array Heatmap signal (histone peptide microarray) (ING5) | Array Heatmap signal (histone peptide microarray) (MORC3 (CW)) | Array Heatmap signal (histone peptide microarray) (CHD4 (PPCC)) | Array Heatmap signal (histone peptide microarray) (KDM4C (TTP)) | Array Heatmap signal (histone peptide microarray) (PHRF1 (RP)) | Array Heatmap signal (histone peptide microarray) (ING4) | Array Heatmap signal (histone peptide microarray) (PHF21A) | Array Heatmap signal (histone peptide microarray) (PHF2) | Array Heatmap signal (histone peptide microarray) (BAZ2B) | Array Heatmap signal (histone peptide microarray) (KDM5B (3)) | other results
1 | H3R2me2a + K4me3 + K9ac + S10p + K14ac + K18ac: H3 1-20 | 0.6513 | 0.625 | 0.4975 | 0.5457 | 0.5459 | 0.8949 | 0.7925 | 0.601 | 0.6389 | 0.3601 | 0.3501 | 0.5411 | 0.6237 | 0.4723 | 0.447 | 0.4604 | 0.4526 | 0.7095 | 0.4937 | 0.4836 | Array Heatmap signal (histone peptide microarray) (PHF8): 0.4417; Array Heatmap signal (histone peptide microarray) (CHD5 (PPCC)): 0.548; Array Heatmap signal (histone peptide microarray) (TRIM66 (PB)): 0.5406; Array Heatmap signal (histone peptide microarray) (KDM5A (1)): 0.4602; Array Heatmap signal (histone peptide microarray) (ING2): 0.6564; Array Heatmap signal (histone peptide microarray) (BPTF (PB)): 0.3887; Array Heatmap signal (histone peptide microarray) (RAG2): 0.3777; Array Heatmap signal (histone peptide microarray) (DPF2 (PPC2W2)): 0.6777; Array Heatmap signal (histone peptide microarray) (AIRE (PP)): 0.4047; Array Heatmap signal (histone peptide microarray) (TAF3): 0.4085; Array Heatmap signal (histone peptide microarray) (SP140L): 0.3224
2 | H3R2me2a + K4me3 + S10p: H3 1-20 | 0.6814 | 0.6475 | 0.4991 | 0.5952 | 0.6296 | 0.8994 | 0.741 | 0.7062 | 0.6271 | 0.3687 | 0.3497 | 0.6914 | 0.5987 | 0.4873 | 0.4776 | 0.4698 | 0.4392 | 0.8067 | 0.4437 | 0.5192 | Array Heatmap signal (histone peptide microarray) (PHF8): 0.5293; Array Heatmap signal (histone peptide microarray) (CHD5 (PPCC)): 0.5451; Array Heatmap signal (histone peptide microarray) (TRIM66 (PB)): 0.5905; Array Heatmap signal (histone peptide microarray) (KDM5A (1)): 0.4568; Array Heatmap signal (histone peptide microarray) (ING2): 0.6788; Array Heatmap signal (histone peptide microarray) (BPTF (PB)): 0.396; Array Heatmap signal (histone peptide microarray) (RAG2): 0.4658; Array Heatmap signal (histone peptide microarray) (DPF2 (PPC2W2)): 0.7179; Array Heatmap signal (histone peptide microarray) (AIRE (PP)): 0.4162; Array Heatmap signal (histone peptide microarray) (TAF3): 0.3453; Array Heatmap signal (histone peptide microarray) (SP140L): 0.356
3 | H3R2me2a + K4me3: H3 1-20 | 0.7318 | 0.7481 | 0.5638 | 0.6448 | 0.5767 | 0.8005 | 0.8429 | 0.8444 | 0.6893 | 0.5712 | 0.4004 | 0.8119 | 0.5963 | 0.6181 | 0.4573 | 0.4758 | 0.4989 | 0.6438 | 0.4862 | 0.6231 | Array Heatmap signal (histone peptide microarray) (PHF8): 0.6195; Array Heatmap signal (histone peptide microarray) (CHD5 (PPCC)): 0.5913; Array Heatmap signal (histone peptide microarray) (TRIM66 (PB)): 0.6477; Array Heatmap signal (histone peptide microarray) (KDM5A (1)): 0.4987; Array Heatmap signal (histone peptide microarray) (ING2): 0.6869; Array Heatmap signal (histone peptide microarray) (BPTF (PB)): 0.4143; Array Heatmap signal (histone peptide microarray) (RAG2): 0.449; Array Heatmap signal (histone peptide microarray) (DPF2 (PPC2W2)): 0.6763; Array Heatmap signal (histone peptide microarray) (AIRE (PP)): 0.4826; Array Heatmap signal (histone peptide microarray) (TAF3): 0.3674; Array Heatmap signal (histone peptide microarray) (SP140L): 0.3488
